Where a name gives a salt, the structure may show the parent alone. Read-outs that look alike come from different tables or passages of the source.
Legend:
Assay in all cases: In vitro antibacterial activity (MIC)
Format in all cases: cell-based
[1] = test system: E. aerogenes 83; details: Klebsiella aerogenes, 83
In short: (§1)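 Mueller-Hinton broth carries the compound at 128–0.008 μg/ml; diluted drug may be used fresh or stored frozen at -10° to -70° C before use. Wells are seeded with a 10^-2 dilution of overnight culture and incubated overnight at 37° C.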

[2] = test system: E. cloacae P99; details: Enterobacter cloacae, P99, E. cloacae P99
In short: as §1

[3] = test system: K. pneumoniae HE7; details: Klebsiella pneumoniae; K. pneumoniae HE7; read-out: MIC
In short: as §1

[4] = test system: S. aureus Smith; details: Staphylococcus aureus, S. aureus Smith; read-out: MIC
In short: as §1

[5] = test system: P. aeruginosa 8780; details: Pseudomonas aeruginosa; P. aeruginosa 8780; read-out: MIC
In short: as §1

[6] = test system: P. mirabilis 620A; details: Proteus mirabilis, 620A, P. mirabilis 620A; read-out: MIC
In short: as §1

[7] = test system: K. pneumoniae 35; details: Klebsiella pneumoniae; K. pneumoniae 35; read-out: MIC
In short: as §1

[8] = test system: P. aeruginosa Stone 130; details: Pseudomonas aeruginosa, STONE130, read-out: MIC
In short: as §1

[9] = test system: S. marcescens SM; details: Serratia marcescens, read-out: MIC
In short: as §1

[10] = test system: P. aeruginosa 6148B; details: Pseudomonas aeruginosa, read-out: MIC
In short: as §1

[11] = test system: E. coli 5152; details: Escherichia coli, 5152, E. coli 5152; read-out: MIC
In short: as §1

[12] = test system: E. coli R-563; details: Escherichia coli, R563, E. coli R-563; read-out: MIC
In short: as §1

[13] = test system: K. pneumoniae 503-994; details: Klebsiella pneumoniae, 503994, K. pneumoniae 503-994; read-out: MIC
In short: as §1

[14] = test system: E. coli 48; details: Escherichia coli, 48, E. coli 48; read-out: MIC
In short: as §1

[15] = test system: P. aeruginosa 8710; details: Pseudomonas aeruginosa; P. aeruginosa 8710; read-out: MIC
In short: as §1

[16] = test system: K. pneumoniae 5096; details: Klebsiella pneumoniae; K. pneumoniae 5096; read-out: MIC
In short: as §1

[17] = test system: P. vulgaris 101; details: Proteus vulgaris, 101, P. vulgaris 101; read-out: MIC
In short: as §1

[18] = test system: S. pneumoniae 6302; details: Streptococcus pneumoniae, 6302, S. pneumoniae 6302; read-out: MIC
In short: as §1

[19] = test system: P. rettgeri ATCC 9250; details: Providencia rettgeri, ATCC9250, P. rettgeri ATCC 9250; read-out: MIC
In short: as §1

[20] = test system: S. marcescens S1; details: Serratia marcescens, S1, S. marcescens S1; read-out: MIC
In short: as §1

[21] = test system: P. aeruginosa 5712; details: Pseudomonas aeruginosa; P. aeruginosa 5712; read-out: MIC
In short: as §1

[22] = test system: E. coli 4; details: Escherichia coli, 4, E. coli 4; read-out: MIC
In short: as §1

[23] = test system: P. mirabilis 2
In short: as §1

[24] = test system: K. pneumoniae A; details: Klebsiella pneumoniae, K. pneumoniae A; read-out: MIC
In short: as §1

[25] = test system: P. vulgaris 100; details: Proteus vulgaris; P. vulgaris 100; read-out: MIC
In short: as §1

[26] = test system: K. pneumoniae 4964
In short: as §1

[27] = test system: E. cloacae 9295
In short: as §1

[28] = test system: S. schottmuelleri; details: read-out: MIC
In short: as §1

[29] = test system: P. vulgaris ATCC 6380; details: Proteus vulgaris, ATCC6380, P. vulgaris ATCC 6380; read-out: MIC
In short: as §1

[30] = test system: E. coli 387-1; details: Escherichia coli, 3871, E. coli 387-1; read-out: MIC
In short: as §1

[31] = test system: K. pneumoniae 503-964
In short: as §1

[32] = test system: S. marcescens S4; details: Serratia marcescens, S4, S. marcescens S4; read-out: MIC
In short: as §1

[33] = test system: S. pyogenes 4; details: Streptococcus pyogenes, 4, S. pyogenes 4; read-out: MIC
In short: as §1

[34] = test system: S. typhi P58A; details: Salmonella enterica, TYPHI
In short: as §1

[35] = test system: C. diversus CDC 1663-72; details: Citrobacter koseri, CDC166372; C. diversus CDC 1663-72; read-out: MIC
In short: as §1

[36] = test system: P. mirabilis 503-1136; details: Proteus mirabilis, 5031136, P. mirabilis 503-1136; read-out: MIC
In short: as §1

[37] = test system: P. aeruginosa 503-56; details: Pseudomonas aeruginosa, 50356, P. aeruginosa 503-56; read-out: MIC
In short: as §1

[38] = test system: C. freundii CDC6; details: Citrobacter freundii, CDC6, C. freundii CDC6; read-out: MIC
In short: as §1

[39] = test system: S. marcescens 5805; details: Serratia marcescens, 5805, S. marcescens 5805; read-out: MIC
In short: as §1

[40] = test system: S. marcescens S714; details: Serratia marcescens, S714, S. marcescens S714; read-out: MIC
In short: as §1

[41] = test system: S. pyogenes 503-782; details: Streptococcus pyogenes, 503782; S. pyogenes 503-782; read-out: MIC
In short: as §1

[42] = test system: S. marcescens S147; details: Serratia marcescens; S. marcescens S147; read-out: MIC
In short: as §1

[43] = test system: P. aeruginosa 503-820; details: Pseudomonas aeruginosa, 503820; P. aeruginosa 503-820; read-out: MIC
In short: as §1

[44] = test system: S. pneumoniae SC; details: Streptococcus pneumoniae, read-out: MIC
In short: as §1

## Cc1nccn1CCCC1CCN(C=N[C@@H]2C(=O)N3[C@@H]2SC(C)(C)[C@@H]3C(=O)O)CC1 [F, [2S-(2alpha,5alpha,6beta)]-3,3-dimethyl-6-[[[4-[3-(2-methyl-1H-imidazol-1-yl)propyl]-1-piperidinyl]methylene]amino]-7-oxo-4-thia-1-azabicyclo[3.2.0]heptane-2-carboxylic acid 1.15 molar hydrochloride 1.75 molar hydrate]
[1]
  MIC: 16 µg/mL
[2]
  MIC: 0.125 µg/mL
[3]
  MIC: > 128 µg/mL
[4]
  MIC: 8 µg/mL
[5]
  MIC: > 12 µg/mL
[6]
  MIC: 16 µg/mL
[7]
  MIC: 0.125 µg/mL
[8]
  MIC: > 128 µg/mL
[9]
  MIC: 0.125 µg/mL
[10]
  MIC: > 128 µg/mL
[11]
  MIC: 8 µg/mL
[12]
  MIC: 0.062 µg/mL
[13]
  MIC: 2 µg/mL
[14]
  MIC: 0.062 µg/mL
[15]
  MIC: > 128 µg/mL
[16]
  MIC: 64 µg/mL
[17]
  MIC: 16 µg/mL
[18]
  MIC: 2 µg/mL
[19]
  MIC: 0.25 µg/mL
[20]
  MIC: 0.5 µg/mL
[21]
  MIC: > 128 µg/mL
[22]
  MIC: 0.062 µg/mL
[23]; Proteus mirabilis, 2
  MIC: 0.5 µg/mL
[24]
  MIC: 0.031 µg/mL
[25]
  MIC: 16 µg/mL
[26]; Klebsiella pneumoniae, 4964
  MIC: 32 µg/mL
[27]; Enterobacter cloacae, 9295, E. cloacae 9295, read-out: MIC
  MIC: 0.25 µg/mL
[28]
  MIC: 0.062 µg/mL
[29]
  MIC: 0.25 µg/mL
[30]
  MIC: 0.125 µg/mL
[31]; Klebsiella pneumoniae, 503964, K. pneumoniae 503-964
  MIC: 4 µg/mL
[32]
  MIC: 2 µg/mL
[33]
  MIC: 0.5 µg/mL
[34]
  MIC: 0.062 µg/mL
[35]
  MIC: 0.062 µg/mL
[36]
  MIC: 8 µg/mL
[37]
  MIC: > 128 µg/mL
[38]
  MIC: 0.062 µg/mL
[39]
  MIC: 0.5 µg/mL
[40]
  MIC: 1 µg/mL
[41]
  MIC: 128 µg/mL
[42]
  MIC: 0.25 µg/mL
[43]
  MIC: > 128 µg/mL
[44]
  MIC: 1 µg/mL

## CC1(C)S[C@@H]2[C@H](N=CN3CCC(Cn4ccnc4N)CC3)C(=O)N2[C@H]1C(=O)O [H, [2S-(2alpha,5alpha,6beta)]-6-[[[4-[(2-amino-1H-imidazol-1-yl)methyl-1-piperidinyl]methylene]amino]-3,3-dimethyl-7-oxo-4-thia-1-azabicyclo[3.2.0]heptane-2-carboxylic acid hydrochloride]
[1]
  MIC: 16 µg/mL
[2]
  MIC: 0.062 µg/mL
[3]
  MIC: 128 µg/mL
[4]
  MIC: 8 µg/mL
[5]
  MIC: > 128 µg/mL
[6]
  MIC: 16 µg/mL
[7]
  MIC: 0.25 µg/mL
[8]
  MIC: > 128 µg/mL
[9]
  MIC: 0.125 µg/mL
[10]
  MIC: 64 µg/mL
[11]
  MIC: 8 µg/mL
[12]
  MIC: 0.062 µg/mL
[13]
  MIC: 0.125 µg/mL
[14]
  MIC: 0.062 µg/mL
[15]
  MIC: 128 µg/mL
[16]
  MIC: 64 µg/mL
[17]
  MIC: 8 µg/mL
[18]
  MIC: 1 µg/mL
[19]
  MIC: 0.25 µg/mL
[20]
  MIC: 0.125 µg/mL
[21]
  MIC: 128 µg/mL
[22]
  MIC: 0.062 µg/mL
[23]; Proteus mirabilis, 2, P. mirabilis 2, read-out: MIC
  MIC: 0.25 µg/mL
[24]
  MIC: 0.031 µg/mL
[25]
  MIC: 4 µg/mL
[26]; Klebsiella pneumoniae, 4964, K. pneumoniae 4964, read-out: MIC
  MIC: 64 µg/mL
[27]; Enterobacter cloacae, 9295
  MIC: 0.5 µg/mL
[28]
  MIC: 0.062 µg/mL
[29]
  MIC: 0.062 µg/mL
[30]
  MIC: 0.125 µg/mL
[31]; Klebsiella pneumoniae, 503964, K. pneumoniae 503-964, read-out: MIC
  MIC: 0.125 µg/mL
[32]
  MIC: 0.5 µg/mL
[33]
  MIC: 1 µg/mL
[34]
  MIC: 0.062 µg/mL
[35]
  MIC: 0.062 µg/mL
[36]
  MIC: 4 µg/mL
[37]
  MIC: 32 µg/mL
[38]
  MIC: 0.062 µg/mL
[39]
  MIC: 0.5 µg/mL
[40]
  MIC: 0.25 µg/mL
[41]
  MIC: 64 µg/mL
[42]
  MIC: 0.031 µg/mL
[43]
  MIC: 64 µg/mL
[44]
  MIC: 1 µg/mL
